Reference: patent publication US9399637B2, “Substituted heteroaryl compounds and methods of use” (Calitor Sciences, LLC, priority 2014, dated 2016)

What was measured:
[1] = Pharmacokinetics after intravenous and oral administration in rats; assay type: in vivo; settings: iv dosing, 1 mg/kg; for AUC(0-t) / half-life / Vd: rat, plasma; for Vd: read-out: Vss
Procedure: The LC/MS/MS system used in the analysis consists of an Agilent 1200 Series vacuum degasser, binary pump, well-plate autosampler, thermostatted column compartment, the Agilent G6430 Triple Quadrupole Mass Spectrometer with an electrosprayionization (ESI) source. Quantitative analysis was carried out using MRM mode. The parameters for MRM transitions are in the Table A.
An Agilent XDB-C18, 2.1×30 mm, 3.5 μM column was used for the analysis. 5 μL of the samples were injected. Analysis condition: The mobile phase was 0.1% formic acid in water (A) and 0.1% formic acid in methanol (B). The flow rate was 0.4 mL/min. And the gradient of Mobile phase was in the Table B.
Alternatively, an Agilent 6330 series LC/MS/MS spectrometer equipped with G1312A binary pumps, a G1367A autosampler and a G1314C UV detector were used in the analysis. An ESI source was used on the LC/MS/MS spectrometer. The analysis was done in positive ion mode as appropriate and the MRM transition for each analyte was optimized using standard solution. A Capcell MP-C18 100×4.6 mm I.D., […] column (Phenomenex, Torrance, Calif., USA) was used during the analysis. The mobile phase was 5 mM ammonia acetate, 0.1% MeOH in water (A): 5 mM ammonia acetate, 0.1% MeOH in acetonitrile (B) (70:30, v/v). The flow rate was 0.6 mL/min. Column was maintained at ambient temperature. 20 μL of the samples were injected.
The compounds disclosed herein are assessed in pharmacokinetic studies in mice, rats, dogs or monkeys. The compounds are administered as a water solution, 2% HPMC+1% TWEEN®80 in water solution, 5% DMSO+5% solutol in saline, 4% MC suspension or capsule. For the intravenous administration, the animals are generally given at 1 or 2 mg/kg dose. For the oral (p.o.) dosing, mice and rats are generally given 5 or 10 mg/kg dose, and dogs and monkeys are generally given 10 mg/kg dose. The blood samples (0.3 mL) are drawn at 0.25, 0.5, 1.0, 2.0, 3.0, 4.0, 6.0, 8.0, 12 and 24 h time points or 0.083, 0.25, 0.5, 1.0, 2.0, 4.0, 6.0, 8.0 and 24 h time points and centrifuged at 3,000 or 4000 rpm for 2 to 10 min. The plasma solutions are collected, and stored at −20° C. or −70° C. until analyzed by LC/MS/MS as described above.

JAK1 (h) = target: T1, JAK1 (h) (Homo sapiens, UniProt P23458); assay: JAK1 kinase assay; assay type: biochemical
T1 construct: purchased Millipore UK Ltd (assays run there as a service)
Procedure: (§1) Kinase assays can be performed by measurement of incorporation of γ-^33P ATP into immobilized myelin basic protein (MBP). High binding white 384 well plates (Greiner) are coated with MBP (Sigma #M-1891) by incubation of 60 μL/well of 20 μg/mL MBP in Tris-buffered saline (TBS; 50 mM Tris pH 8.0, 138 mM NaCl, 2.7 mM KCl) for 24 h at 4° C. Plates are washed 3× with 100 μL TBS. Kinase reactions are carried out in a total volume of 34 μL in kinase buffer (5 mM Hepes pH 7.6, 15 mM NaCl, 0.01% bovine gamma globulin (Sigma #I-5506), 10 mM MgCl2, 1 mM DTT, 0.02% TritonX-100). Compound dilutions are performed in DMSO and added to assay wells to a final DMSO concentration of 1%. Each data point is measured in duplicate, and at least two duplicate assays are performed for each individual compound determination. Enzyme is added to final concentrations of 10 nM or 20 nM, for example. A mixture of unlabeled ATP and γ-^33P ATP is added to start the reaction (2×10^6 cpm of γ-^33P ATP per well (3000 Ci/mmole) and 10 μM unlabeled ATP, typically. The reactions are carried out for 1 h at room temperature with shaking Plates are washed 7× with TBS, followed by the addition of 50 μL/well scintillation fluid (Wallac). Plates are read using a Wallac Trilux counter. This is only one format of such assays; various other formats are possible, as known to one skilled in the art.
(§2) The above assay procedure can be used to determine the IC50 for inhibition and/or the inhibition constant, Ki. The IC50 is defined as the concentration of compound required to reduce the enzyme activity by 50% under the condition of the assay. The IC50 value is estimated by preparing a 10 point curve using a ½ log dilution series (for example, a typical curve may be prepared using the following compound concentrations: 3 μM, 1 μM, 0.3 μM, 0.1 μM, 0.03 μM, 0.01 μM, 0.003 μM, 0.001 μM, 0.0003 μM and 0 μM).
JAK1 (h) is incubated with 20 mM Tris/HCl pH 7.5, 0.2 mM EDTA, 500 μM […], 10 mM MgAcetate and [γ-^33P-ATP] (specific activity approx. 500 cpm/pmol, concentration as required).
(§3) The kinase assays described herein were performed at Millipore UK Ltd, Dundee Technology Park, Dundee DD2 1SW, UK.

JAK2 (h) = target: T2, JAK2 (h) (Homo sapiens, UniProt O60674); assay: JAK2 kinase assay; assay type: biochemical
T2 construct: purchased Millipore UK Ltd (assays run there as a service)
Procedure: as §1, §2
(specific activity approx. 500 cpm/pmol, concentration as required).
as §3

T1 sequence (P23458 whole entry): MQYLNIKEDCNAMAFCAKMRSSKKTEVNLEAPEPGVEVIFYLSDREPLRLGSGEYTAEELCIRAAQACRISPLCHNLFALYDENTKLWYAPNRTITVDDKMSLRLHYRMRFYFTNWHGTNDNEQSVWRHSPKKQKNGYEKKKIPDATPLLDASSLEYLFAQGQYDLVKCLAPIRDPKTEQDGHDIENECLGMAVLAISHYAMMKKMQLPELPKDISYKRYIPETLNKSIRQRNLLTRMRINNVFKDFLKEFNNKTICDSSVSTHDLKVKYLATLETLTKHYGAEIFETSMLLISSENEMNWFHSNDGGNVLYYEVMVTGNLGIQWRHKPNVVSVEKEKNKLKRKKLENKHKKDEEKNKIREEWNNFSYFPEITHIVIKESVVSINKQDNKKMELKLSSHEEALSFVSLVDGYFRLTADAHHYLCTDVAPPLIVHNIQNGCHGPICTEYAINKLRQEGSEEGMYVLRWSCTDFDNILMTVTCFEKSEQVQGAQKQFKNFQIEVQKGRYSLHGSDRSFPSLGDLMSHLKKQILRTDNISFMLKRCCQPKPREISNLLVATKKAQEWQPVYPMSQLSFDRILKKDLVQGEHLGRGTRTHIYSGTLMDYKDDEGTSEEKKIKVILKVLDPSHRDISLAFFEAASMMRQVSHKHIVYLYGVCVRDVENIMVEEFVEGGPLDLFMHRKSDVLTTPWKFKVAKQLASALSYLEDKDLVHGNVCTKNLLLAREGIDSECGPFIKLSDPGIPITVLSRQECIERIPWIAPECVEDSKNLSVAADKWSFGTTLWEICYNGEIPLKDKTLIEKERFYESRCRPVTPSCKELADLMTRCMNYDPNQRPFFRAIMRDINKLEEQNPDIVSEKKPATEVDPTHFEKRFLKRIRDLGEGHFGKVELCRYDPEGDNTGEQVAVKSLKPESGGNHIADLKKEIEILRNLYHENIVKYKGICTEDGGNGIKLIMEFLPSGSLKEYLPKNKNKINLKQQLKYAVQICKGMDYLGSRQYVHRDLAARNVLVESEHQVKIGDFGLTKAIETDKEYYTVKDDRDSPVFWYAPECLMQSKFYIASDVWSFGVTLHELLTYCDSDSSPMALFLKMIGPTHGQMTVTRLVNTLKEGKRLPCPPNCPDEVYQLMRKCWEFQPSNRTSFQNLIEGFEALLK
T2 sequence (O60674 whole entry): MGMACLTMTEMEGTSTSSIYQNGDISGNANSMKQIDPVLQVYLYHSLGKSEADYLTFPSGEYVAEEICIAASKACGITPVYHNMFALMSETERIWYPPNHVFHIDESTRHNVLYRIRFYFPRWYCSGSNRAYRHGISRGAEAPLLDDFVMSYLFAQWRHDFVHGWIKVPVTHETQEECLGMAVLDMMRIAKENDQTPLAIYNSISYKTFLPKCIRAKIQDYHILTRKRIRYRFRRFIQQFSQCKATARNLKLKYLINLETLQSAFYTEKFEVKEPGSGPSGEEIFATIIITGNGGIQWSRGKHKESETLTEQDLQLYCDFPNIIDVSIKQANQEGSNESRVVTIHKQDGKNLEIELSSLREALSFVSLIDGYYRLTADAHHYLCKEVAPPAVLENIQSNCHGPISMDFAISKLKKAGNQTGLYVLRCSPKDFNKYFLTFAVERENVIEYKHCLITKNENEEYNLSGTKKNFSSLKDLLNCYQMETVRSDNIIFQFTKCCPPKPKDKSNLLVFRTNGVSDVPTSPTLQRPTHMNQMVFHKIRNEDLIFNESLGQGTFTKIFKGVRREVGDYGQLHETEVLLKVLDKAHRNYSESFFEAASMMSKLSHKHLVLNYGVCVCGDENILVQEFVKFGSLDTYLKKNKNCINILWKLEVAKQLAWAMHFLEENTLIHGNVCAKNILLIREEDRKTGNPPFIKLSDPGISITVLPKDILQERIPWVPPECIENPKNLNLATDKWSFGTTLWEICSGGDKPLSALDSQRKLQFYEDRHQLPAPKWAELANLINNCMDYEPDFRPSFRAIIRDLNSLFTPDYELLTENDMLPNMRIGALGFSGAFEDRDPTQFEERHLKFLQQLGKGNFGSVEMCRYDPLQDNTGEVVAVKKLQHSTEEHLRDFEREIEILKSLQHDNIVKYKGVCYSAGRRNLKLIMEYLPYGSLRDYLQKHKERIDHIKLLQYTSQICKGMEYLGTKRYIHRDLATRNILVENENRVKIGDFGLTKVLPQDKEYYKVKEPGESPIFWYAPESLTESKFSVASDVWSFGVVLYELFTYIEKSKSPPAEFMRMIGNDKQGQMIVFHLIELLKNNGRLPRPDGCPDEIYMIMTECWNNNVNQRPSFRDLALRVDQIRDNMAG

Question: Which Cl/F [1] does the source give for `CC(=O)N1CCC2(CCC(Nc3nc(Nc4ccc5c(C)n(C)nc5c4)ncc3Cl)CC2)CC1` [Ex. 7, 1-(9-((5-chloro-2-((2,3-dimethyl-2H-indazol-6-yl)amino)pyrimidin-4-yl)amino)-3-azaspiro[5.5]undecan-3-yl)ethanone] here?
Answer: Its Cl/F is 24.5 mL/min/kg.

Question: What about the AUC(0-t) [1] of the same compound?
Answer: Its AUC(0-t) is 688 ng·h/mL.

Question: And the half-life [1]?
Answer: The half-life was 0.85 h.

Question: And the Vd [1]?
Answer: The Vd was 1.68 L/kg.

Question: What about the IC50 (JAK1 (h)) of the same compound?
Answer: Its IC50 is 0.9 nM.

Question: What about the IC50 (JAK2 (h)) of the same compound?
Answer: The IC50 was 2 nM.

Question: With `Cc1c2ccc(Nc3ncc(Cl)c(NC4CC5CN(C(=O)CC#N)CC5C4)n3)cc2nn1C` (stereo not drawn) [Ex. 4, 3-(5-((5-chloro-2-((2,3-dimethyl-2H-indazol-6-yl)amino)pyrimidin-4-yl)amino)hexahydrocyclopenta[c]pyrrol-2(1H)-yl)-3-oxopropanenitrile] as the compound, how does the Cl/F [1] read?
Answer: Its Cl/F is 36.2 mL/min/kg.

Question: And the AUC(0-t) [1]?
Answer: The AUC(0-t) was 458 ng·h/mL.

Question: What about the half-life [1] of the same compound?
Answer: The half-life was 1.36 h.

Question: And the Vd [1]?
Answer: The Vd was 1.44 L/kg.

Question: What about the IC50 (JAK1 (h)) of the same compound?
Answer: The IC50 was 1 nM.

Question: And the IC50 (JAK2 (h))?
Answer: Its IC50 is 9 nM.
